Measurements taken from US20100004333A1, “COMPOSITIONS AND METHODS FOR TREATING CARDIOVASCULAR DISORDERS” (priority 2004, published 2010).

What was measured:
[1] = system: New Zealand White rabbits; assay: Rabbit aortic balloon-injury model: intimal hyperplasia; assay type: in vivo; settings: 9 weeks, FIG. 21; for Protection against balloon injury-induced intimal hyperplasia: 0.02% wt/wt in chow, ABI at end of week three
Experimental: Rabbit aortic balloon-injury model. Four groups of male New Zealand White rabbits (1.8-2.2 kg, Merunga Farm, Coffs Harbour, Australia), matched for body weight and baseline plasma cholesterol, were fed 100 g per day of normal chow±1% probucol, 0.02% DTBP, or 0.02% BP (wt/wt) for up to nine weeks. Aortic balloon-injury (ABI) was carried out at the end of week three, resulting in complete endothelial denudation. Harvesting of aortas was done after a further 6 weeks (n=6 per group). Aortic lesion assessment was carried out at the 3rd pair of lumber arteries in NZW rabbits as described in Circulation 2003, 107:2031-2036. Statistics. Data are expressed as mean±SEM. One-way ANOVA and the student-Newman-Keul's test were used to evaluate differences between groups, with P<0.05 considered significant.
Materials and methods were as described in Examples 6 and 7, with the following addition. DTBP-s and STBP were synthesized as described in Example 10. A total of 48 New Zealand White rabbits (1.8-2.2 kg) were used for this example. Rabbits were fed normal chow (100 g/day) without (Ctrl, n=12) or with 0.02% DTBP (wt/wt, n=6), 0.02% STBP (wt/wt, n=7), 0.02% DTBP-s (wt/wt, n=11) or 0.1% DTBP-s (wt/wt, n=7) for 9 weeks. Aortic balloon-injury was carried out at the end of week three.

Heme oxygenase-1 mRNA = assay: HO-1 mRNA by real time RT-PCR in cultured rabbit aortic smooth muscle cells; assay type: cell-based; settings: α-tocopherol 50 μM, 24 hours; FIG. 20A
Experimental: (§1) Materials and methods were principally as described in Examples 6 and 7. Vitamin E (α-tocopherol for cellular studies, α-tocopheryl acetate for in vivo studies) was obtained from Sigma (St. Louis, Mo.). Heme oxygenase-1 mRNA was assessed by real time RT-PCR in rabbit aortic smooth muscle cells cultured for 24 hours in the presence of vehicle (control), probucol (50 μM) or α-tocopherol (50 μM) as described in (Circulation 2004; 110:1855-1860). Re-endothelialization was assessed by Evans blue staining (Circulation 2003; 107:2031-2036) 3 weeks after injury. Intima-to-media ratio of vessels from control rabbits and animals treated with probucol or α-tocopheryl acetate (n=6 per group) was also determined 3 weeks after aortic balloon injury, using 5 serial sections per aortic segment, 100 μm apart.

rabbits = assay: Rabbit aortic balloon injury, 3 weeks: re-endothelialization (Evans blue) and intima-to-media ratio, vitamin E; assay type: in vivo; settings: α-tocopheryl acetate
Experimental: as §1

Row | Structure (SMILES) | Protection against balloon injury-induced intimal hyperplasia [1] | Induction of HO-1 (mRNA) in vascular smooth muscle cells (Heme oxygenase-1 mRNA) | Intimal hyperplasia (intima-to-media ratio) (rabbits; 3 weeks after aortic balloon injury, FIG. 20C) | Re-endothelialization (Evans blue) (rabbits; 3 weeks after injury, FIG. 20B) | Protection against intimal hyperplasia: 0.02% DTBP-s compared with 0.1% DTBP-s ([1]; 0.1% wt/wt DTBP-s, P<0.05 versus 0.02% DTBP-s)
1 | CC(C)(C)c1cc(S[Se]c2cc(C(C)(C)C)c(O)c(C(C)(C)C)c2)cc(C(C)(C)C)c1O [STBP, 2,6-di-t-butyl-4-(3,5-di-t-butyl-4-hydroxyphenylselanylthio)phenol] | protected to a comparable extent |  |  |  | 
2 | Cc1c(C)c2c(c(C)c1O)CC[C@@](C)(CCC[C@H](C)CCC[C@H](C)CCCC(C)C)O2 [vitamin E, α-tocopherol] |  | failed to induce HO-1 | failed to inhibit intimal hyperplasia | did not promote re-endothelialization | 
3 | CC(C)(C)c1cc(SSc2cc(C(C)(C)C)c(OC(=O)CCC(=O)O)c(C(C)(C)C)c2)cc(C(C)(C)C)c1O [DTBP-s, 4-(2,6-di-t-butyl-4-((3,5-di-t-butyl-4-hydroxyphenyl)disulfanyl)phenoxy)-4-oxobutanoic acid] | significant protection, albeit less effectively |  |  |  | less effectively as that seen with STBP (0.02%, to wt/wt) and DTBP-s (0.1%, wt/wt)
